Measured values taken from patent US20090170865A1, “Treatment of Prostate Cancer with Angiogenesis-Targeting Quinazoline-Based Anti-Cancer Compounds” (University of Kentucky Research Foundation, priority 2007, published 2009).
Like-named read-outs stand apart in the source and are kept apart here.

What was measured:
PC-3 cells [1] = details: for apoptosis induction: 10 μmol/L, 24 h
Description: (§1) a) Hoechst Staining. Cells were plated in 6-well culture dishes at 5×10^4 cells per/well and at subconfluency were treated with increasing concentrations of DZ-1-23, -38, -40, -42, and -50 (0-25 μM). After 24 and 48 hrs of treatment, cells were fixed with 4% (w/v) paraformaldehyde (Sigma) and stained with 10 μg/mL Hoechst 33342 (B2261; Sigma) in the presence of 0.1% Triton X-100 (Sigma) as previously described. Cells were visualized using a Zeiss Axiovert S100 fluorescent microscope (Thornwood, N.Y.) with a UV filter (365 nm) and cells with condensed chromatin were designated apoptotic (100× magnification). The apoptotic index was determined by counting three random fields in duplicate wells per group. Each experiment was performed twice. b) MTT assay: Subconfluent cultures of cells were exposed to increasing concentrations of DZ-1-23, -38, -40, -42, and -50 (0-25 μM). After treatment the medium was replaced with 250 μl of MTT (Sigma) (1 mg/ml) and incubated at 37° C. to form blue crystals. After 2 hrs the MTT was removed and replaced with DMSO (250 μl) and incubated overnight at 37° C. The DMSO-crystal solution's absorbance was read at 540 nm in a microplate reader (Bio-Tek Instruments, Winooski, VM). Numerical data represent the average of three independent experiments performed in triplicate. Cell Migration Assay. (Wounding assay) Confluent monolayers of PC-3, DU-145, HUVEC, or HMVEC-L cells were wounded with a toothpick. After wounding, medium was changed and DZ-3 or DZ-50 (5 μM). After incubation for 12 or 24 hrs, wounding areas were examined under light microscopy (Axiovert 10, Zeiss). Cells that had migrated to the wounded areas were counted under a microscope for quantification of cell migration. Migration was calculated as the average number of cells observed in five random high power (400×) wounded fields/per well in duplicate wells. Tube Formation Assay: In vitro Angiogenesis Evaluation: In vitro formation of tubular structures was studied on extracellular matrix using an angiogenesis kit as described by the manufacturer (Chemicon International, Inc., Temecula, Calif.). HUVEC or HMVEC-L (10×10^4 cells/well) of 96-well-plates were seeded onto ECMatrigel-coated wells in the presence or absence of DZ-3 or DZ-50 and VEGF. Cells were treated with cytokines as single agents or each in combination (e.g. DZ-50 and VEGF).

HUVEC = assay: Tube formation assay (in vitro angiogenesis); type: cell-based, human; details: for vascular endothelial cell tube formation: 10 μmol/L, Matrigel, 24 hrs
[2] = system: endothelial and epithelial cell lines; assay: Cell viability / cell death evaluation (MTT assay); type: cell-based, human
[3] = system: DU-145 human prostate cancer xenografts; details: for CD31+ (vascularity) / Ki67 (proliferation index), % / TUNEL (apoptotic index): DU-145 xenograft
Description: (§2) Tumorigenicity Studies. Human prostate cells (PC-3 and DU-145) suspended in PBS, were inoculated subcutaneously (s.c.) (2.5×10^6 cells/site) in the flank of male nude mice, 4-6 weeks of age. Tumors were measured every 48 hrs with a digital caliber, and tumor volumes were calculated using the formula length×(width)^2/2. When tumors reached ≈50 mm^3 mice were stratified into treatment groups of 6 mice/treatment. DZ-50 was administered at doses of 50, 100, and 200 mg/kg in 0.5% methylcellulose (w/v)+0.1% Tween-80 (v/v) in water, by oral gavage using a 22-gauge, 1.5-inch gavage needle. Animals were sacrificed after 2 wks of treatment unless otherwise indicated. In a separate experiment human prostate cells (PC-3) were inoculated as described above and dosing began (200 mg/kg) concurrently for 2 wks. Upon termination of the experiment, tumors were surgically excised and tissue specimens were fixed in a 10% (v/v) formalin solution (Sigma) and subsequently embedded in Paraplast X-tra paraffin (VWR). Blocks were sectioned (6 μm) on a Finesse Microtome (ThermoShandon, UK).
(§3) Spontaneous Metastasis Assay: Human prostate cells (PC-3) were injected (2×10^6 cells/80 μl of PBS) in the tail vein of male nude mice, 4-6 wks of age; mice were maintained in a pathogen-free environment. At 10 days post-inoculation, 200 mg/kg of DZ-50 was given daily (via oral gavage as described above). After 2 wks of treatment, DZ-50 treated and vehicle control mice were sacrificed and lungs, spleen, kidneys, and prostate organs were excised and subjected to examination for metastatic tumor lesions. Apoptosis Evaluation Apoptotic cells were detected using the ApopTago Peroxidase In Situ Apoptosis Kit (Chemicon, Temecula, Calif.). Briefly, paraffin-embedded sections were treated with Proteinase K (Dako, Carpinteria, Calif.) and were subsequently incubated with terminal deoxynucleotidyl transferase enzyme. Terminal deoxynucleotidyl transferase-mediated deoxyuridine triphosphate nick end labeling (TUNEL)-positive cells were counted in five different fields (400×) and the apoptotic index was determined based on the number of apoptotic cells over the total number of cells. Vascularity Evaluation: CD31 staining was performed for endothelial cells using enzymatic digestion with Proteinase K (Dako). The primary antibody used was the mouse anti-human CD31 specific for endothelial cells from Dako (overnight incubation at 4° C.). CD31-positive endothelial cells were counted in five different fields (400×). Cell Proliferation Cell proliferation index was evaluated on the basis of Ki67 nuclear antigen immunoreactivity. Following antigen retrieval slides were incubated with an antibody directed against the Ki67 nuclear antigen (AMAC, Westbrook, Mass.). Ki67+ cells were counted from five different fields (400×).

[4] = system: PC-3 human prostate cancer xenografts; details: for CD31+ (vascularity) / Ki67 (proliferation index), % / TUNEL (apoptotic index): PC-3 xenograft
Description: as §2, §3

[5] = data not shown
DU-145 cells [6] = details: non-cytotoxic doses 5 and 10 μM
Description: as §1

[7] = system: HUVEC, HMVEC-L vascular endothelial cells; details: non-cytotoxic doses 5 and 10 μM
Description: as §1

integrin β1 = details: 10 μmol/L
Description: (§4) FACS—Flow Cytometric Analysis: PC-3 cells were treated with DZ-50 (10 μM) and harvested with 0.5 mM EDTA solution. Prostate cancer epithelial cells were then incubated with hanks balanced salt solution (HBSS) supplemented with 2% BSA and 0.01% sodium azide for 30 min at 4° C. Cells were subsequently fixed in 4% (w/v) formaldehyde, washed, and incubated with the designated integrin antibody followed by FITC-conjugated goat anti-mouse secondary. Analysis was performed on a Partec FlowMax (Partec, Munster, Germany).

[8] = system: integrins α2, α3, αV, and β3; details: PC-3 cells, data not shown
Description: as §4

[9] = system: CAM blood vessel development; details: 48 hrs, with VEGF or bFGF
Description: Fertilized chicken eggs were incubated at 37° C. At E8 a window was created to allow visualization of the egg shell membrane. 6 mm blank paper discs (BD) were placed on the egg shell membrane along with VEGF (100 ng) or bFGF (100 ng) and DZ-50. The windows were sealed with porous adhesive and allowed to incubate 48 hrs. At E10 the adhesive was removed along with the egg shell membrane to expose the CAM and 4% paraformaldehyde was added. Following excision the number of vessels per CAM was quantified by counting under a dissecting microscope.

[10] = system: PC-3 cells injected in the tail vein; details: 200 mg/kg p.o. from 10 d postinoculation, 21 days of treatment, vs untreated control mice
Description: as §3, with “Vascularity Evaluation: CD31 staining was performed for endothelial cells using enzymatic digestion with Proteinase K (Dako). The primary antibody used was the mouse anti-human CD31 specific for endothelial cells from Dako (overnight incubation at 4° C.).” left out, “Following antigen retrieval slides were incubated with an antibody directed against the Ki67 nuclear antigen (AMAC, Westbrook, Mass.).” left out

[11] = system: PC-3 cells on HMVEC-L monolayer; details: 6 hrs of exposure, non-cytotoxic doses
Description: Sterile (12 mm diameter) glass coverslips were coated with Matrigel (Becton Dickson, Franklin Lakes, N.J.) at a dilution of 1:8 and air dried at room temperature (1 hr). Coverslips received approximately 6.25×10^4 HMVEC-L to form a complete monolayer. The cells were allowed to spread on the Matrigel for 24 hrs prior to the experiment. PC-3 cells were resuspended in EGM-2MV (Cambrex) and added to the HMVEC-L monolayer at a concentration of 8×10^3 cells/coverslip. Co-cultures were incubated at 37° C. at 5% CO2 for 3, 6, 9, 12, and 24 hrs. Prior to the addition of prostate epithelial cells, cells were incubated with the lipophilic tracer 1,1′-dioctadecyl-3,3,3′,3′-tetramethylindocarbocyanine perchlorate (DiI) (Invitrogen, Carlsbad, Calif.) for 20 min at 10 μg/ml to stain cell membranes. To label F-actin, PC-3 cells, or co-cultures of PC-3 cells HMVEC-L were fixed for 10 min at room temperature in 2% paraformaldehyde in PBS, and were permeabilized for 5 min with a buffer containing 15 mM Tris, 120 mM NaCl, 2 mM EDTA, 2 mM EGTA, and 0.5% Triton X-100 (pH 7.4). […] Coverslips were mounted with Vectashield (Vector Laboratories, Burlington, Canada) on glass slides and analyzed with confocal microscopy.

PC-3 cells [12] = details: 6, 9, and 12 h exposure, 5 and 10 μmol/L
Description: (§5) Prostate cancer cells PC-3 and DU-145 cells were treated for 3, 6, 9, 12, or 15 hrs with DZ-50 (5 μM) and harvested. 5×10^4 cells were added to each well of a 6-well culture dish coated with either collagen or fibronectin and incubated for 30 min at 37° C. Following incubation cells were fixed and the number of cells/well recorded. Numerical data represent the average of three independent experiments in triplicate.

DU-145 cells [13] = system: DU-145 cells
Description: as §5

COc1cc2nc(N3CCN(S(=O)(=O)c4ccc(-c5ccccc5)cc4)CC3)nc(N)c2cc1OC [DZ-3]
apoptosis induction (PC-3 cells [1]): trigger apoptotic cell death

COc1cc2nc(N3CCN(S(=O)(=O)c4c(C(C)C)cc(C(C)C)cc4C(C)C)CC3)nc(N)c2cc1OC [DZ-10, 2-[4-(2,4,6-triisopropylbenzenesulfonyl)-piperazin-1-yl]-6,7-dimethoxyquinazolin-4-yl-amine]
vascular endothelial cell tube formation (HUVEC): does not change the ability of HUVEC cells to form multibranched tubular networks
effect on cell viability ([2]; negative control compound of the tube formation assay): no effect on cell viability

CC(C)Oc1cc2nc(N3CCN(S(=O)(=O)c4ccc(-c5ccccc5)cc4)CC3)nc(N)c2cc1OC(C)C [DZ-50]
CD31+ (vascularity) ([3]; 100 mg/kg): 15.1 ± 0.7
Ki67 (proliferation index), % ([3]; 100 mg/kg): 53.9%
TUNEL (apoptotic index) ([3]; 100 mg/kg): 3.5 ± 1.0
CD31+ (vascularity) ([3]; 200 mg/kg): 10.1 ± 0.4
Ki67 (proliferation index), % ([3]; 200 mg/kg): 49.7%
TUNEL (apoptotic index) ([3]; 200 mg/kg): 3.4 ± 1.2
tumor volume ([3]; DU-145 xenografts, 200 mg/kg p.o., 14 d after palpable tumor formation): significant reduction in tumor volume
prostate tumor development (growth initiation) ([4]; PC-3 inoculation with simultaneous treatment, 200 mg/kg p.o., 2 wks): dramatically suppressed
CD31+ (vascularity) ([4]; 100 mg/kg): 13.5 ± 1.9
Ki67 (proliferation index), % ([4]; 100 mg/kg): 42.6%
TUNEL (apoptotic index) ([4]; 100 mg/kg): 2.0 ± 0.8
CD31+ (vascularity) ([4]; 200 mg/kg): 6.5 ± 0.6
Ki67 (proliferation index), % ([4]; 200 mg/kg): 45.0%
TUNEL (apoptotic index) ([4]; 200 mg/kg): 1.4 ± 0.4
tumor volume ([4]; PC-3 xenografts, 200 mg/kg p.o., 14 d after palpable tumor formation): significant reduction in tumor volume
gross and histological examination of lung, liver, spleen, and prostate ([5]; compared to control animals): no apparent changes
animal's behavioral pattern and weight [5]: no change
tube formation in the presence of VEGF (HUVEC; 10 μmol/L with VEGF): VEGF cannot reverse the antiangiogenic effect
vascular endothelial cell tube formation (HUVEC): significantly inhibited
cell viability/cell death ([2]; PC-3 and HMVEC-L cells, 10M, first 24 hrs of treatment): no effect on cell viability/cell death
cell viability ([2]; endothelial and epithelial cell lines, 24 and 48 hrs, 5-25 μmol/L): reduced cell viability
apoptosis induction (PC-3 cells [1]): not effective at inducing apoptosis
prostate cancer epithelial cell migration (PC-3) (PC-3 cells [1]; non-cytotoxic doses 5 and 10 μM): significant inhibition
prostate cancer epithelial cell migration (DU-145) (DU-145 cells [6]): significant inhibition
endothelial cell migration [7]: significant inhibition
integrin β1 expression intensity (integrin β1; DU-145 cells, 12 h): significantly smaller shift
integrin β1 surface expression (integrin β1; PC-3 cells, 12-24 hrs): undetectable
surface expression of integrins α2, α3, αV, and β3 [8]: did not effect the surface expression
angiogenesis/vascularity (number of blood vessels per CAM) [9]: significant suppression of angiogenesis/vascularity
number of metastatic foci to the lungs [10]: significant reduction
attachment of tumor epithelial cells to an endothelial monolayer [11]: significantly inhibited
attachment of PC-3 cells to fibronectin or collagen (PC-3 cells [12]): reduced the ability of PC-3 cells to attach to either fibronectin or collagen, but this effect was not statistically significant
attachment of DU-145 cells to fibronectin or collagen (DU-145 cells [13]): neither fibronectin nor collagen, was significantly inhibited
